Test results reported in US20210186925A1, “Applications Of YD1701 In Preparation Of Drugs For Treating ALDH1A3 High-Expression Tumors” (First Affiliated Hospital Third Military Medical University …, priority 2017, published 2021).

Tested on: orthotopic CRC transplanted tumors
Assay: orthotopic CRC transplanted tumors in mice
Type: in vivo
Details: YD1701 1 mg·kg^−1, 5-FU 10 mg·kg^−1, intraperitoneal, two weeks; three groups compared; FIG. 20
Protocol: To further assess the therapeutic potential of the YD1701, the inhibiting effects of the YD1701 and 5-FU(5-fluorouracil) on orthotopic CRC transplanted tumors in the mice are compared, and the experimental process is shown in FIG. 17. On the 20th day after the colons of mice of YD1701 are implanted with tumor micro-tissue blocks orthotopically, and the formation of the orthotopic transplanted tumors is determined by an in-vivo imaging system. […] Then, the determined mice with the orthotopic transplanted tumors are divided into three groups and subjected to intraperitoneal injection of YD1701 (1 mg·kg^−1), normal saline+DMSO and 5-FU (10 mg·kg^−1) for treatment for two weeks. The total survival time of the three groups of mice with the orthotopic transplanted tumors is compared.

With `O=c1[nH]cc(F)c(=O)[nH]1` [5-FU, 5-fluorouracil] the “volume sizes of the tumors in situ in the colons” value was “no obvious difference”.
